Assay results reported in patent publication US8207345B2, “Tetrahydroquinolines for use as modulators of the mitotic motor protein Eg5” (Merck Patent GmbH, priority 2005, dated 2012).

Tested on: cells
Experiment: cell cycle effect (G2/M), appended experiments
Format: cell-based

N=C(N)c1ccc(OCCCCCOc2ccc(C(=N)N)cc2)cc1 [pentamidine]
maintain cells in the G2/M cell cycle: maintain cells in the G2/M cell cycle
